In patent US9340590B2 (priority 2011, dated 2016):
Where two headings read alike, the source gives them in different places. Positions of bridges follow the written chain, without caps; N, C: chain ends. Non-standard residues stand in square brackets, D forms with d. Residues, ends and D or L forms follow the SMILES beside them. βAla = NCCC(=O)O

What was measured:
Assay in all cases: cell-based
[1] = biological target: hNav1.5 (Homo sapiens, UniProt Q14524); settings: IonWorks Quattro, read-out: IWQ Use Nav1.5
hNav1.5, sequence (Q14524 whole entry, looked up): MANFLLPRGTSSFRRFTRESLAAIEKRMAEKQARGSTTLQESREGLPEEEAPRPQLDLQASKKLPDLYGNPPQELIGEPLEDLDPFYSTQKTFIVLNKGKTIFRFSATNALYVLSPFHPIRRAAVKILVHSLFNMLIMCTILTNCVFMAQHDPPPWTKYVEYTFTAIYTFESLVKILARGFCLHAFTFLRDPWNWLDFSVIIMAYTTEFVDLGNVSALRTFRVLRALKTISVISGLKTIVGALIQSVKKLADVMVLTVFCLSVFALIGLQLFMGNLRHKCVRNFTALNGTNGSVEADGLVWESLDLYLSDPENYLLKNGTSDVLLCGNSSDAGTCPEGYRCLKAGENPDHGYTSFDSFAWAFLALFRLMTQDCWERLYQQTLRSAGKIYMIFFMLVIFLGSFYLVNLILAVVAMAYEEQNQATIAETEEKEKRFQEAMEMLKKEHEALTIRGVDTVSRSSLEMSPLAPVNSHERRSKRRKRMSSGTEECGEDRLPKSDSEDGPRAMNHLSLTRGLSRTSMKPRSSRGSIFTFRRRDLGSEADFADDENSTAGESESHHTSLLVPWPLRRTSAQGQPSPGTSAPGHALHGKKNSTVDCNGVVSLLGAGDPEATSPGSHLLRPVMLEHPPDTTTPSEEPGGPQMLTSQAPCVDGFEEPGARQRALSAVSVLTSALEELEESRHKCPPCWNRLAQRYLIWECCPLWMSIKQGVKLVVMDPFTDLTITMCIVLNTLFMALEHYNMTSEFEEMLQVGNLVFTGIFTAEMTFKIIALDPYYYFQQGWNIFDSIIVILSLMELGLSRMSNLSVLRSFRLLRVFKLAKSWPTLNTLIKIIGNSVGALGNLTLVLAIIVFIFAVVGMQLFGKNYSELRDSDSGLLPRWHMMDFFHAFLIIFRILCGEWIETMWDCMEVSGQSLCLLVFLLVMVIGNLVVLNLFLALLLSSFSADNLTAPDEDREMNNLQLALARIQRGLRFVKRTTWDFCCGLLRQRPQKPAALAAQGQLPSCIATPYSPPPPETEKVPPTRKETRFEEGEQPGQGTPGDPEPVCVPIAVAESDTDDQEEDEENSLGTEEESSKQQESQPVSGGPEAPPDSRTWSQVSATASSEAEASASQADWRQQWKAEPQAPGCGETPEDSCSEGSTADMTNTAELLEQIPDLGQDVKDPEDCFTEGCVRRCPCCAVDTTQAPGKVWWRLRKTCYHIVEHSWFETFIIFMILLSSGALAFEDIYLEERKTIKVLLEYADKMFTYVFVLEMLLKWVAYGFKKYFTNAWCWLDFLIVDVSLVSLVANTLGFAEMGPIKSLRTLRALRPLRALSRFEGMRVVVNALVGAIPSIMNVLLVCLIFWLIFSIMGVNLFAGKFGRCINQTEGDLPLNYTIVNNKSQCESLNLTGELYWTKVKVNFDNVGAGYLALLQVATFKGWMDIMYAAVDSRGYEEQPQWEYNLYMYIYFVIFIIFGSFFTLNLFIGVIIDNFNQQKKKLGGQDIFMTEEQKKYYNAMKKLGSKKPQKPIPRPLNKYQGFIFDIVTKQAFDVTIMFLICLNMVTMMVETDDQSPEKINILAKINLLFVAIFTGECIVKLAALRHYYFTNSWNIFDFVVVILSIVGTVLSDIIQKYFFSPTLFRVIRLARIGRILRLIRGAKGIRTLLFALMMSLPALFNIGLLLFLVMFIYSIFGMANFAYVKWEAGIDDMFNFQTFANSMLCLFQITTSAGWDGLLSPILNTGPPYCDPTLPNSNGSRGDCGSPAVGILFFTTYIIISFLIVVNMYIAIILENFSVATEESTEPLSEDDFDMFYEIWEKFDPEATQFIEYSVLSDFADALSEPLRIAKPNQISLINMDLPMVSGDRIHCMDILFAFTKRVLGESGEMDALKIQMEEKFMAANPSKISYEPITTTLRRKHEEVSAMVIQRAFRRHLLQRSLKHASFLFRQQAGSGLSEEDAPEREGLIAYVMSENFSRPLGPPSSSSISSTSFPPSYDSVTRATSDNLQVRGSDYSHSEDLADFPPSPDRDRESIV

[2] = biological target: hNav1.7 (Homo sapiens, UniProt Q15858); assay type: cell-based; settings: IonWorks Quattro, read-out: IWQ Use Nav1.7
[3] = biological target: hNav1.3 (Homo sapiens, UniProt Q9NY46); settings: IonWorks Quattro, read-out: IWQ Use Nav1.3
hNav1.3, sequence (Q9NY46 whole entry, looked up): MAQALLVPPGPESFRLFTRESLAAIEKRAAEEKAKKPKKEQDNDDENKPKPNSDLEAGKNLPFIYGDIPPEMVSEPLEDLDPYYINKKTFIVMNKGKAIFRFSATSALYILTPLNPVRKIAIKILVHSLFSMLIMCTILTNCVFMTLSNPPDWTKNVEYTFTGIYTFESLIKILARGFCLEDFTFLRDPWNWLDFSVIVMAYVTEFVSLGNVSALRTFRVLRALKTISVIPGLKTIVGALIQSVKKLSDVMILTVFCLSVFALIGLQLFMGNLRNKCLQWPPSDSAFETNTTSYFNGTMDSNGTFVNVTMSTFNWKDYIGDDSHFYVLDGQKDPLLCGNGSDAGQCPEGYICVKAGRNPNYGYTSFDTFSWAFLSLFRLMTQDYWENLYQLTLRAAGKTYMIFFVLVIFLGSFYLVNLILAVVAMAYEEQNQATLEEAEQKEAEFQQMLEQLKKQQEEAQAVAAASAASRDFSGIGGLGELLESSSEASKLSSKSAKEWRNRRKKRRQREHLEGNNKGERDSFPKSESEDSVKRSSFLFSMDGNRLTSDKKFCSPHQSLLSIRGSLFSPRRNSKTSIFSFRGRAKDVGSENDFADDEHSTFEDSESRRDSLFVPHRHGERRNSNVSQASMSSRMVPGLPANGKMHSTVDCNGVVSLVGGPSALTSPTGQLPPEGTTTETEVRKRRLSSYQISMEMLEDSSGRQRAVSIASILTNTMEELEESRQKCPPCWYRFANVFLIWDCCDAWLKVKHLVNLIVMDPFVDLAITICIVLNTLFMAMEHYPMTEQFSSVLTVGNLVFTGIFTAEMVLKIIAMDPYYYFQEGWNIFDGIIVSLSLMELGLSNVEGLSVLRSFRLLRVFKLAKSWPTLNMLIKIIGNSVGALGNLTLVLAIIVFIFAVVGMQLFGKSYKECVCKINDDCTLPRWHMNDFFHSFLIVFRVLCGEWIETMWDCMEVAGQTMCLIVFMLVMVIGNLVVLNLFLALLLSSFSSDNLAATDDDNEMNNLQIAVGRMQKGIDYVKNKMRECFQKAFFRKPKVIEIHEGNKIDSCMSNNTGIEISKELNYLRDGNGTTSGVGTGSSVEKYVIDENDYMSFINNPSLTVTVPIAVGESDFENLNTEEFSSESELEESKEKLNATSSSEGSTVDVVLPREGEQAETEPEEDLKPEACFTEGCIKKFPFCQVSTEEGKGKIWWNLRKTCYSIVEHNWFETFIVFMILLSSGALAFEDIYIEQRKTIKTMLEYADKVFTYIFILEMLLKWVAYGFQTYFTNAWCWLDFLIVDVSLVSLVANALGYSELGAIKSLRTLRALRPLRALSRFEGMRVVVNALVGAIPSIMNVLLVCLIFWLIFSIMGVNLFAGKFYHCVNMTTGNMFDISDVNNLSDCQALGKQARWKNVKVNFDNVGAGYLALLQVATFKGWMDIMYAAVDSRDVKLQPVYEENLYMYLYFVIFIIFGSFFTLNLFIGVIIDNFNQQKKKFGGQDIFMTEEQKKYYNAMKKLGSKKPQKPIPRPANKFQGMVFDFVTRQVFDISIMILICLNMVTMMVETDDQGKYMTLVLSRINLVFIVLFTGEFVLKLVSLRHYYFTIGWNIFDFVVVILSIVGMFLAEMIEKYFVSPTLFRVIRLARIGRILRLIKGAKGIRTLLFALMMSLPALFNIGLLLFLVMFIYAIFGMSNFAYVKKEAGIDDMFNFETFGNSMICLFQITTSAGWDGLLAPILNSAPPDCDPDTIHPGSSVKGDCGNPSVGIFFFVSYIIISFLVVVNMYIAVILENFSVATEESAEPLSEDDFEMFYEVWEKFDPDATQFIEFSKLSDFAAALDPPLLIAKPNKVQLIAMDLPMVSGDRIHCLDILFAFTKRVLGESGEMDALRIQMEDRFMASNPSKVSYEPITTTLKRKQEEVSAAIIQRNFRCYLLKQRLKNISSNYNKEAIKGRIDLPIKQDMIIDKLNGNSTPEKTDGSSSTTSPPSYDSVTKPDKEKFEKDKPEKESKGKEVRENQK

[4] = clamped to −110 mV, depolarized to −10 mV, 5 min after compound, n=2

## CC[C@H](C)[C@@H]1NC(=O)[C@@H]2CSSC[C@@H]3NC(=O)[C@H](C(C)C)NC(=O)[C@H](CC(C)C)NC(=O)[C@H](CC(N)=O)NC(=O)[C@@H]4CCCN4C(=O)[C@H](CCCNC(=N)N)NC(=O)[C@H](CSSC[C@H](NC(=O)[C@@H](N)CC(=O)O)C(=O)N[C@@H](CC(C)C)C(=O)NCC(=O)N[C@@H](Cc4ccccc4)C(=O)N[C@@H](CCSC)C(=O)N[C@@H](CCCNC(=N)N)C(=O)N[C@@H](CCCCN)C(=O)N2)NC(=O)[C@H](CSSC[C@@H](C(=O)N[C@@H](CCCCN)C(=O)N[C@@H](Cc2ccc(O)cc2)C(=O)N[C@H](C(=O)N[C@@H](Cc2ccccc2)C(N)=O)C(C)C)NC(=O)[C@H](Cc2c[nH]c4ccccc24)NC(=O)[C@H](CCCCN)NC(=O)[C@H](CCC(=O)O)NC(=O)[C@H]([C@@H](C)O)NC(=O)[C@H](CCCNC(=N)N)NC(=O)[C@H](CO)NC3=O)NC(=O)[C@H](CCCCN)NC(=O)[C@H](CC(=O)O)NC(=O)[C@H](CC(N)=O)NC(=O)[C@H](CC(=O)O)NC(=O)[C@@H]2CCCN2C1=O [compound 29] (H-DCLGFMRKCIPDNDKCCRPNLVCSRTEKWCKYVF-NH2; disulfide 2-17, 9-23, 16-30)
[1]; Table 23, use, […]
  IC50: 15.2 µM
[2]; Table 23, use, […]
  IC50: 8.54 µM
[3]; Table 23, use, […]
  IC50: 12.3 µM

## CC[C@H](C)[C@@H]1NC(=O)[C@@H]2CSSC[C@@H]3NC(=O)[C@H](C(C)C)NC(=O)[C@H](CC(C)C)NC(=O)[C@H](CCC(=O)O)NC(=O)[C@@H]4CCCN4C(=O)[C@H](CCCNC(=N)N)NC(=O)[C@H](CSSC[C@H](NC(=O)[C@@H](N)CC(=O)O)C(=O)N[C@@H](CC(C)C)C(=O)NCC(=O)N[C@@H](Cc4ccccc4)C(=O)N[C@@H](CCSC)C(=O)N[C@@H](CCCNC(=N)N)C(=O)N[C@@H](CCCCN)C(=O)N2)NC(=O)[C@H](CSSC[C@@H](C(=O)N[C@@H](CCCCN)C(=O)N[C@@H](Cc2ccc(O)cc2)C(=O)N[C@H](C(=O)N[C@@H](Cc2ccccc2)C(N)=O)C(C)C)NC(=O)[C@H](Cc2c[nH]c4ccccc24)NC(=O)[C@H](CCCCN)NC(=O)[C@H](Cc2cnc[nH]2)NC(=O)[C@H]([C@@H](C)O)NC(=O)[C@H](CCCNC(=N)N)NC(=O)[C@H](CO)NC3=O)NC(=O)[C@H](CCCCN)NC(=O)[C@H](CC(=O)O)NC(=O)[C@H](CC(N)=O)NC(=O)[C@H](CC(=O)O)NC(=O)[C@@H]2CCCN2C1=O [compound 149] (H-DCLGFMRKCIPDNDKCCRPELVCSRTHKWCKYVF-NH2; disulfide 2-17, 9-23, 16-30)
[1]; Use
  IC50: 7.49 µM
[2]; Use
  IC50: 1.42 µM
[3]; Use
  IC50: 1.02 µM

## CC[C@H](C)[C@@H]1NC(=O)[C@@H]2CSSC[C@@H]3NC(=O)[C@H](C(C)C)NC(=O)[C@H](CC(C)C)NC(=O)[C@H](CC(N)=O)NC(=O)[C@@H]4CCCN4C(=O)[C@H](CCCNC(=N)N)NC(=O)[C@H](CSSC[C@H](NC(=O)[C@@H](N)CC(=O)O)C(=O)N[C@@H](CC(C)C)C(=O)NCC(=O)N[C@@H](C)C(=O)N[C@@H](CC(C)C)C(=O)N[C@@H](CCCNC(=N)N)C(=O)N[C@@H](CCCCN)C(=O)N2)NC(=O)[C@H](CSSC[C@@H](C(=O)N[C@@H](CCCCN)C(=O)N[C@@H](Cc2ccc(O)cc2)C(=O)N[C@H](C(=O)N[C@@H](Cc2ccccc2)C(=O)O)C(C)C)NC(=O)[C@H](Cc2c[nH]c4ccccc24)NC(=O)[C@H](CC(=O)O)NC(=O)[C@H](Cc2c[nH]cn2)NC(=O)[C@H]([C@@H](C)O)NC(=O)[C@H](CCCNC(=N)N)NC(=O)[C@H](CO)NC3=O)NC(=O)[C@H](CCCCN)NC(=O)[C@H](CC(=O)O)NC(=O)[C@H](CC(N)=O)NC(=O)[C@H](CC(=O)O)NC(=O)[C@@H]2CCCN2C1=O [compound 854] (H-DCLGALRKCIPDNDKCCRPNLVCSRTHDWCKYVF-OH; disulfide 2-17, 9-23, 16-30)
[1]; use-dependent block, hNav1.5
  IC50: > 5 µM
[2]; use-dependent block, hNav1.7
  IC50: > 5 µM
[3]; use-dependent block, hNav1.3
  IC50: > 5 µM

## CC[C@H](C)[C@@H]1NC(=O)[C@@H]2CSSC[C@@H]3NC(=O)[C@H](C(C)C)NC(=O)[C@H](CC(C)C)NC(=O)[C@H](CC(N)=O)NC(=O)[C@@H]4CCCN4C(=O)[C@H](CCCNC(=N)N)NC(=O)[C@H](CSSC[C@H](NC(=O)[C@@H](N)CC(=O)O)C(=O)N[C@@H](CC(C)C)C(=O)NCC(=O)N[C@@H](Cc4ccc(O)cc4)C(=O)N[C@@H](CCSC)C(=O)N[C@@H](CCCNC(=N)N)C(=O)N[C@@H](CCCCN)C(=O)N2)NC(=O)[C@H](CSSC[C@@H](C(=O)N[C@@H](CCCCN)C(=O)N[C@@H](Cc2ccc(O)cc2)C(=O)N[C@H](C(=O)N[C@@H](Cc2ccccc2)C(N)=O)C(C)C)NC(=O)[C@H](Cc2c[nH]c4ccccc24)NC(=O)[C@H](CCCCN)NC(=O)[C@H](Cc2c[nH]cn2)NC(=O)[C@H]([C@@H](C)O)NC(=O)[C@H](CCCNC(=N)N)NC(=O)[C@H](CO)NC3=O)NC(=O)[C@H](CCCCN)NC(=O)[C@H](CC(=O)O)NC(=O)[C@H](CC(N)=O)NC(=O)[C@H](CC(=O)O)NC(=O)[C@@H]2CCCN2C1=O [SEQ ID NO: 271] (H-DCLGYMRKCIPDNDKCCRPNLVCSRTHKWCKYVF-NH2; disulfide 2-17, 9-23, 16-30)
[1]; [4]
  IC50: 15.6 µM
[2]; [4]
  IC50: 1.43 µM
[3]; [4]
  IC50: 1.64 µM

## CC[C@H](C)[C@@H]1NC(=O)[C@@H]2CSSC[C@@H]3NC(=O)[C@H](C(C)C)NC(=O)[C@H](CC(C)C)NC(=O)[C@H](CC(N)=O)NC(=O)[C@@H]4CCCN4C(=O)[C@H](CCCNC(=N)N)NC(=O)[C@H](CSSC[C@H](NC(=O)[C@@H](N)CC(=O)O)C(=O)N[C@@H](CC(C)C)C(=O)NCC(=O)NCCC(=O)N[C@@H](Cc4ccccc4)C(=O)N[C@@H](CCCNC(=N)N)C(=O)N[C@@H](CCCCN)C(=O)N2)NC(=O)[C@H](CSSC[C@@H](C(=O)N[C@@H](CCCCN)C(=O)N[C@@H](Cc2ccc(O)cc2)C(=O)N[C@H](C(=O)N[C@@H](Cc2ccccc2)C(N)=O)C(C)C)NC(=O)[C@H](Cc2c[nH]c4ccccc24)NC(=O)[C@H](CCCCN)NC(=O)[C@H](Cc2c[nH]cn2)NC(=O)[C@H]([C@@H](C)O)NC(=O)[C@H](CCCNC(=N)N)NC(=O)[C@H](CO)NC3=O)NC(=O)[C@H](CCCCN)NC(=O)[C@H](CC(=O)O)NC(=O)[C@H](CC(N)=O)NC(=O)[C@H](CC(=O)O)NC(=O)[C@@H]2CCCN2C1=O [compound 603] (H-DCLG[βAla]FRKCIPDNDKCCRPNLVCSRTHKWCKYVF-NH2; disulfide 2-17, 9-23, 16-30)
[1]; use-dependent block, hNav1.5
  IC50: 9.5 µM
[2]; use-dependent block, hNav1.7
  IC50: 15.3 µM
[3]; use-dependent block, hNav1.3
  IC50: 11.8 µM

## CC[C@H](C)[C@@H]1NC(=O)[C@@H]2CSSC[C@@H]3NC(=O)[C@H](C(C)C)NC(=O)[C@H](CC(C)C)NC(=O)[C@H](CC(N)=O)NC(=O)[C@@H]4CCCN4C(=O)[C@H](CCCNC(=N)N)NC(=O)[C@H](CSSC[C@H](NC(=O)[C@@H](N)CC(=O)O)C(=O)N[C@@H](CC(C)C)C(=O)NCC(=O)N[C@@H](Cc4ccccc4)C(=O)N[C@@H](CCSC)C(=O)N[C@@H](CCCNC(=N)N)C(=O)N[C@@H](CCCCN)C(=O)N2)NC(=O)[C@H](CSSC[C@@H](C(=O)N[C@@H](CCCCN)C(=O)N[C@@H](Cc2ccc(O)cc2)C(=O)N[C@H](C(=O)N[C@@H](Cc2ccccc2)C(N)=O)C(C)C)NC(=O)[C@H](C)NC(=O)[C@H](CCCCN)NC(=O)[C@H](Cc2cnc[nH]2)NC(=O)[C@H]([C@@H](C)O)NC(=O)[C@H](CCCNC(=N)N)NC(=O)[C@H](CO)NC3=O)NC(=O)[C@H](CCCCN)NC(=O)[C@H](CC(=O)O)NC(=O)[C@H](CC(N)=O)NC(=O)[C@H](CC(=O)O)NC(=O)[C@@H]2CCCN2C1=O [compound 47] (H-DCLGFMRKCIPDNDKCCRPNLVCSRTHKACKYVF-NH2; disulfide 2-17, 9-23, 16-30)
[1]; Table 24, use, […]
  IC50: 16.2 µM
[2]; Table 24, use, […]
  IC50: 11.7 µM
[3]; Table 24, use, […]
  IC50: 27.5 µM

## CC[C@H](C)[C@@H]1NC(=O)[C@@H]2CSSC[C@@H]3NC(=O)[C@H](C(C)C)NC(=O)[C@H](CC(C)C)NC(=O)[C@H](CC(N)=O)NC(=O)[C@@H]4CCCN4C(=O)[C@H](CCCNC(=N)N)NC(=O)[C@H](CSSC[C@H](NC(=O)[C@@H](N)CC(=O)O)C(=O)N[C@@H](CC(C)C)C(=O)NCC(=O)N[C@@H](Cc4ccccc4)C(=O)N[C@@H](C)C(=O)N[C@@H](CCCNC(=N)N)C(=O)N[C@@H](CCCCN)C(=O)N2)NC(=O)[C@H](CSSC[C@@H](C(=O)N[C@@H](CCCCN)C(=O)N[C@@H](Cc2ccc(O)cc2)C(=O)N[C@H](C(=O)N[C@@H](Cc2ccccc2)C(N)=O)C(C)C)NC(=O)[C@H](Cc2c[nH]c4ccccc24)NC(=O)[C@H](CCCCN)NC(=O)[C@H](Cc2cnc[nH]2)NC(=O)[C@H]([C@@H](C)O)NC(=O)[C@H](CCCNC(=N)N)NC(=O)[C@H](CO)NC3=O)NC(=O)[C@H](CCCCN)NC(=O)[C@H](CC(=O)O)NC(=O)[C@H](CC(N)=O)NC(=O)[C@H](CC(=O)O)NC(=O)[C@@H]2CCCN2C1=O [SEQ ID NO: 23] (H-DCLGFARKCIPDNDKCCRPNLVCSRTHKWCKYVF-NH2; disulfide 2-17, 9-23, 16-30)
[1]; [4]
  IC50: 17.4 µM
[2]; [4]
  IC50: 0.51 µM
[3]; [4]
  IC50: 0.21 µM
